Measured values as given in paper PMC6952396, “Structural basis for itraconazole-mediated NPC1 inhibition” (Nature Communications, 2020).
Several values for one entry are separate records, joined by “and”; a condition that tells them apart may be missing. Equal entries are not always repeated.

Target: T1, NPC1 (Cricetulus griseus, UniProt Q9JLG3)
T1 construct: CHO-7 cells in the medium are deprived of cholesterol to induce the LDL receptors biosynthesis; endogenous in cells; host or cells: CHO-7 cells
T1 sequence (Q9JLG3 23-1277): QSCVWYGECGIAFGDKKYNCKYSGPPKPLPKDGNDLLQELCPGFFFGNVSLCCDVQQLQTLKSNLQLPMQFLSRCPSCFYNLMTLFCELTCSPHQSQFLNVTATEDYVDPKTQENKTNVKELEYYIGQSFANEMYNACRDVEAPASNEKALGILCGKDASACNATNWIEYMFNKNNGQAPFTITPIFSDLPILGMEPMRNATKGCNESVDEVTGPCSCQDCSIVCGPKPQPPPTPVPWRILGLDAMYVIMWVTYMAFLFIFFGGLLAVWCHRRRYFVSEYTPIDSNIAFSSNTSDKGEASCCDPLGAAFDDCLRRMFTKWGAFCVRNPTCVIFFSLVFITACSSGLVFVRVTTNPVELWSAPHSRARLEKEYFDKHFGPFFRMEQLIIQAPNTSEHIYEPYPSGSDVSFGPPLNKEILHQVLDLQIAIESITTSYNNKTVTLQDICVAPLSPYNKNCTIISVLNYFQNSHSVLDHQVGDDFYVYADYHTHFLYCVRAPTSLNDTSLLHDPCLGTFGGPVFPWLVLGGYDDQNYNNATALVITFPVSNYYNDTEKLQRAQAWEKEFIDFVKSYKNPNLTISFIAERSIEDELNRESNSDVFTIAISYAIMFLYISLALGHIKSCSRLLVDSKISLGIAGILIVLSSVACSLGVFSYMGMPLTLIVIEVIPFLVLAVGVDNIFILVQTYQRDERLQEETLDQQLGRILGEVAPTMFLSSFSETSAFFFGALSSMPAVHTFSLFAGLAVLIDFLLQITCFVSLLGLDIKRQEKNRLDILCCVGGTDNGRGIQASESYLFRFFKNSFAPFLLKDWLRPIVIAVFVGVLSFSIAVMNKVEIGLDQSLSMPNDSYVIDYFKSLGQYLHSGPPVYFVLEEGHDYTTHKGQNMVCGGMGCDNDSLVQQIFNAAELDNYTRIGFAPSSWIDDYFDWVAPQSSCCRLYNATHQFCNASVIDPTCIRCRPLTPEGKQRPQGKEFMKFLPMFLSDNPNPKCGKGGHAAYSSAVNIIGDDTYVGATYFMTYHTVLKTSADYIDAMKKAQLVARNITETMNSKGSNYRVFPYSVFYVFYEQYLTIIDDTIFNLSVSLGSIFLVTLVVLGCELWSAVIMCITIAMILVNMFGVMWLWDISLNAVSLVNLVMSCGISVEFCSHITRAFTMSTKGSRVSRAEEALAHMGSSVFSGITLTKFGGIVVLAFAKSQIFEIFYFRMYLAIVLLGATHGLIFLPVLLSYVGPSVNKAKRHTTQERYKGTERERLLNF
Assay: Cholesterol re-esterification (ACAT) assay measuring NPC1-mediated export of cholesterol from lysosomes in CHO-7 cells
Type: cell-based
Conditions: for cholesteryl [14C] oleate formed, Repeat 1 / cholesteryl [14C] oleate formed, Repeat 2: Fig. 2 source data; for cholesteryl [14C] oleate formed, Repeat 3 / cholesteryl [14C] oleate formed, Repeat 4: Supplementary Fig. 3 source data; for IC50: IC50 (concentration at which each compound inhibited cholesterol esterification by 50%), 10% FCS, 4 h then 2 h [14C] oleate pulse
Source text: Itraconazole has three chiral centers (Supplementary Fig. 2a). The pharmaceutical form contains four cis-stereoisomers in a 1:1:1:1 molar ratio (Supplementary Fig. 2a–d). To determine the activity of the cis-stereoisomers, the individual isomers were isolated and identified based on their optical rotation in chloroform following a previous report (Supplementary Fig. 2e)[26]. Then, they were separately tested in a cholesterol re-esterification assay used to measure NPC1-mediated export of cholesterol from lysosomes. Briefly, CHO-7 cells in the medium are deprived of cholesterol to induce the LDL receptors biosynthesis. The cells are then incubated with fetal calf serum (FCS) that contains LDL. The LDL-derived cholesterol will now be transported by functional NPC1 protein from the lysosome to the endoplasmic reticulum (ER). The acyl-CoA:cholesterol actyltransferase named ACAT can now re-esterify the cholesterol in the ER. Therefore, the cells were pulse-labeled with [^14C] oleate and we can measure the synthesis of cholesteroyl [^14C] oleate to evaluate the activity of NPC1 protein. Using this assay, we tested the ability of various itraconazole to inhibit NPC1 activity.
Fig. 2 ACAT activity of itraconazole and ketoconazole in CHO-7 cells. On day 0, CHO-7 cells were set up in medium A with 5% LPDS at 2.5 × 10^5 cells/well in 6-well dish. On day 2, cells were switched to medium A with 5% LPDS containing 50 µM sodium compactin and 50 µM sodium mevalonate. On day 3 the cells received fresh medium B containing compactin and mevalonate with various concentration compounds in the presence of 10% FCS containing lipoproteins. After incubation for 4 h at 37 °C, each cell monolayer was pulse-labeled for 2 h with 0.1 mM sodium [^14C] oleate (5792 dpm/nmol). The cells were then harvested for measurement of their content of cholesteryl [^14C] oleate and [^14C] triglycerides, as described in Methods. […] Itraconazole mixture, isomer A (Supplementary Fig. 2a), isomer B (Supplementary Fig. 2b) and isomer C (Supplementary Fig. 2c) were added at final concentrations of 0.3 μM. The isomer D (Supplementary Fig. 2d), I-Br and ketoconazole were added at final concentrations of 1 μM. The biological repeats are shown as individual values. Source data are provided as a Source Data file.
On day 0, cells were set up in medium A with 5% LPDS at 2.5 × 10^5 cells/well in six-well dish. On day 2, cells were switched to medium A with 5% LPDS containing 50 µM sodium compactin and 50 µM sodium mevalonate. On day 3 the cells received fresh medium B containing compactin and mevalonate with indicated concentration triazole compounds in the presence of 10% FCS containing lipoproteins. After incubation for 4 h at 37 °C, each cell monolayer was pulse-labeled for 2 h with 0.1 mM sodium [^14C] oleate (5792 dpm/nmol). The cells were then harvested for measurement of their content of cholesteryl [^14C] oleate and [^14C] triglycerides.
The rate of incorporation of [^14C] oleate into cholesteryl [^14C] oleate and [^14C] triglycerides by monolayers of NPC1^−/− cells and CHO-7 cells was measured as described previously. In brief, cells were switched to medium containing LPDS supplemented with compactin and mevolonate at 16 h before the experiments. On the day of the experiment, cells were incubated for 4 h with fresh medium containing FCS as a source of cholesterol-containing lipoproteins. Cells were then pulse –labeled for 2 h with 0.1 mM sodium [^14C] oleate. Cells were then washed, and the lipids were extracted in hexane:isopropanol (3:2, vol:vol), separated on a silica gel G thin-layer chromatogram (developed in heptane:ethylether:acetic acid, 90:30:1), and quantified by scintillation counting with the use of an internal standard for recovery.

Row | Structure (SMILES) | cholesteryl [14C] oleate formed, Repeat 1 (0.01 uM compound) | cholesteryl [14C] oleate formed, Repeat 2 (0.01 uM compound) | cholesteryl [14C] oleate formed, Repeat 3 (0.01 uM compound) | cholesteryl [14C] oleate formed, Repeat 4 (0.01 uM compound) | cholesteryl [14C] oleate formed, Repeat 1 (0.03 uM compound) | cholesteryl [14C] oleate formed, Repeat 2 (0.03 uM compound) | cholesteryl [14C] oleate formed, Repeat 3 (0.03 uM compound) | cholesteryl [14C] oleate formed, Repeat 4 (0.03 uM compound) | cholesteryl [14C] oleate formed, Repeat 1 (0.06 uM compound) | cholesteryl [14C] oleate formed, Repeat 2 (0.06 uM compound) | cholesteryl [14C] oleate formed, Repeat 3 (0.06 uM compound) | cholesteryl [14C] oleate formed, Repeat 4 (0.06 uM compound) | cholesteryl [14C] oleate formed, Repeat 1 (0.1 uM compound) | cholesteryl [14C] oleate formed, Repeat 2 (0.1 uM compound) | cholesteryl [14C] oleate formed, Repeat 3 (0.1 uM compound) | cholesteryl [14C] oleate formed, Repeat 4 (0.1 uM compound) | cholesteryl [14C] oleate formed, Repeat 1 (0.3 uM compound) | cholesteryl [14C] oleate formed, Repeat 2 (0.3 uM compound) | cholesteryl [14C] oleate formed, Repeat 3 (0.3 uM compound) | cholesteryl [14C] oleate formed, Repeat 4 (0.3 uM compound) | also measured
1 | CCC(C)n1ncn(-c2ccc(N3CCN(c4ccc(OCC5COC(Cn6cncn6)(c6ccc(Cl)cc6Cl)O5)cc4)CC3)c(Br)c2)c1=O (stereo not shown) [I-Br] | 4.59 nanomoles formed per hour per milligram cell protein | 4.968 nanomoles formed per hour per milligram cell protein | 4.668 nanomoles formed per hour per milligram cell protein | 4.998 nanomoles formed per hour per milligram cell protein | 5.377 nanomoles formed per hour per milligram cell protein | 4.886 nanomoles formed per hour per milligram cell protein | 4.708 nanomoles formed per hour per milligram cell protein | 4.077 nanomoles formed per hour per milligram cell protein | 4.324 nanomoles formed per hour per milligram cell protein | 4.164 nanomoles formed per hour per milligram cell protein | 4.605 nanomoles formed per hour per milligram cell protein | 3.966 nanomoles formed per hour per milligram cell protein | 3.9836 nanomoles formed per hour per milligram cell protein | 4.202 nanomoles formed per hour per milligram cell protein | 4.772 nanomoles formed per hour per milligram cell protein | 3.292 nanomoles formed per hour per milligram cell protein | 1.539 nanomoles formed per hour per milligram cell protein | 1.1254 nanomoles formed per hour per milligram cell protein | 1.245 nanomoles formed per hour per milligram cell protein | 1.037 nanomoles formed per hour per milligram cell protein | cholesteryl [14C] oleate formed, Repeat 1 (1 uM compound): 0.2467 nanomoles formed per hour per milligram cell protein; cholesteryl [14C] oleate formed, Repeat 2 (1 uM compound): 0.5544 nanomoles formed per hour per milligram cell protein; cholesteryl [14C] oleate formed, Repeat 3 (1 uM compound): 0.5005 nanomoles formed per hour per milligram cell protein; cholesteryl [14C] oleate formed, Repeat 4 (1 uM compound): 0.5131 nanomoles formed per hour per milligram cell protein; IC50: 200 nM and ~200 nM
2 | CCC(C)n1ncn(-c2ccc(N3CCN(c4ccc(OCC5COC(Cn6cncn6)(c6ccc(Cl)cc6Cl)O5)cc4)CC3)cc2)c1=O (stereo not shown) [Itraconazole mixture, itraconazole] | 4.018 nanomoles formed per hour per milligram cell protein | 4.2448 nanomoles formed per hour per milligram cell protein | 4.59 nanomoles formed per hour per milligram cell protein | 4.561 nanomoles formed per hour per milligram cell protein | 5.241 nanomoles formed per hour per milligram cell protein | 3.3234 nanomoles formed per hour per milligram cell protein | 3.807 nanomoles formed per hour per milligram cell protein | 5.72 nanomoles formed per hour per milligram cell protein | 1.349 nanomoles formed per hour per milligram cell protein | 2.23 nanomoles formed per hour per milligram cell protein | 3.728 nanomoles formed per hour per milligram cell protein | 1.926 nanomoles formed per hour per milligram cell protein | 1.053 nanomoles formed per hour per milligram cell protein | 0.9435 nanomoles formed per hour per milligram cell protein | 1.321 nanomoles formed per hour per milligram cell protein | 1.133 nanomoles formed per hour per milligram cell protein | 0.3641 nanomoles formed per hour per milligram cell protein | 0.3378 nanomoles formed per hour per milligram cell protein | 0.05082 nanomoles formed per hour per milligram cell protein | 0.1455 nanomoles formed per hour per milligram cell protein | IC50: ~50 nM and 50 nM
